Results taken from publication PMC6050476, “Pre-clinical Pharmacokinetic and Metabolomic Analyses of Isorhapontigenin, a Dietary Resveratrol Derivative” (Frontiers in Pharmacology, 2018).

Tests used:
[1] = Stability of isorhapontigenin in rat plasma QC samples under different storage conditions; assay type: in vitro ADME, Sprague-Dawley rat; conditions: for Freeze thaw stability (% remaining): 3 cycles; for Post preparative stability (% remaining): 4 °C, 6 h; for Long term stability (% remaining): -80 °C, 14 days; for Short term stability (% remaining): on ice, 3 h
Method: Stock solutions of ISO were prepared by dissolution in DMSO and they were stored at room temperature. The stock solutions were further diluted using blank rat plasma to prepare the calibration standards and QC samples. The stock solution of IS was dissolved in acetonitrile to a concentration of 10 μg/mL. 100 μL IS solution was aliquoted into 1.5-mL polypropylene tubes for storage at −80°C. During sample preparation, this solution was further diluted to the working concentration of 10 ng/mL using acetonitrile containing 0.18 μM of disodium EDTA and stored at 4°C.
The calibration range was 1–1000 ng/mL. A simple protein precipitation procedure was used for sample cleanup prior to LC–MS/MS analysis ([Chen et al., 2015], [2016b]). Three volumes of 10 ng/mL IS working solution (^13C isotopically labeled resveratrol in acetonitrile–0.18 μM disodium EDTA) were added to one volume of plasma sample spiked with of L-ascorbic acid at a final concentration of 0.8 mg/mL. After vigorous vortex, centrifugation of samples was performed at 15,000 g for 10 min at 4°C. Subsequently, the clear supernatants were transferred into HPLC vials. During each LC–MS/MS analysis, 1 μL of supernatant was injected into the system.
The dilution integrity was confirmed using a dilution factor of 20. In the presence of L-ascorbic acid (0.8 mg/mL), ISO appeared to stable in plasma; similarly, addition of EDTA in IS acetonitrile solution (0.18 μM) enhanced the post-preparative stability. The details in accuracy, precision, stability, and matrix effect can be found in Supplementary Tables S1–S3.

[2] = Plasma pharmacokinetics of isorhapontigenin in Sprague-Dawley rats (LC–MS/MS); assay type: in vivo; conditions: rat
Method: This in vivo study was conducted with strict adherence to the “Guidelines on the Care and Use of Animals for Scientific Purposes” (Singapore). The pharmacokinetic study design and animal handling procedures were reviewed and approved by the Institutional Animal Care and Use Committee of the National University of Singapore (NUS; R15-1273). All animal experiments were carried out in a specific pathogen-free animal facility (temperature: 22 ± 1°C; humidity: 60–70%) in Comparative Medicine, NUS. Sprague-Dawley rats (male, 9–10 weeks old, weight: 300–350 g) were purchased from InVivos (Singapore). The rats were housed under a 12 h light–dark cycle with free access to food and water. On the day before the pharmacokinetic study, surgery was performed under isoflurane anesthesia and a catheter (polyethylene tube, i.d. = 0.580 mm, o.d. = 0.965 mm, Becton Dickinson, Sparks, MD, United States) was implanted into the right jugular vein. Intravenous ISO administration and blood collection were carried out via this cannula. To prevent cross-contamination and blood clotting, ∼0.3 mL heparin-saline (10 I.U./mL) was flushed through the cannula after intravenous dosing or each blood collection. This reliable pharmacokinetic model has been routinely used in our laboratory to assess the pharmacokinetic profiles of resveratrol and its derivatives ([Yeo et al., 2013a],[b], [2017]; [Choo et al., 2014]; [Chen et al., 2015], [2016b],[c]; [Dai et al., 2018]).
0.3 M HP-β-CD was used to formulate ISO into a solution for intravenous injection while 0.3% CMC (w/v) was applied as a suspending vehicle for oral delivery ([Yeo et al., 2017]). To enhance the stability of ISO, L-ascorbic acid (final concentration: 0.1 mg/mL) was spiked into both intravenous and oral formulations ([Yeo et al., 2017]). The concentrations of ISO in intravenous and oral formulations were 5 and 13.3 mg/mL, respectively.
Twenty-two rats were divided into four groups. Group 1 (n = 5) received a single bolus intravenous injection of ISO at the dose of 90 μmol/kg (23.2 mg/kg). Serial blood samples were collected before dosing and at 5, 15, 30, 60, 90, 120, 180, 240, 300, 420, 540, and 720 min after intravenous injection. Group 2 (n = 5) received a single oral administration of ISO at the dose of 200 μmol/kg (51.6 mg/kg). Serial blood samples were collected before dosing and at 15, 30, 45, 60, 90, 120, 180, 240, 300, 420, 540, and 720 min after oral gavage. Group 3 (n = 5) received daily oral pre-treatment of oral dosing vehicle (2 mL/kg) while Group 4 (n = 7) received daily oral pre-treatment of ISO at the dose of 100 μmol/kg (25.8 mg/kg) for 1 week. On day 7, ∼8–10 h after the last pre-treatment dose, surgery was performed on rats in Groups 3 and 4 for jugular vein cannulation, and blood samples were also collected from Groups 3 and 4 for metabolomic study. On day 8, the pharmacokinetic study was carried out on these two groups of animals at the dose of 100 μmol/kg (25.8 mg/kg) using the same blood sampling schedule as Group 2.
All blood samples during the pharmacokinetic study were collected in heparinized tubes containing L-ascorbic acid (final concentration = 0.8 mg/mL) to ensure stability of ISO ([Yeo et al., 2017]). The samples were centrifuged at 5000 g for 5 min, and the plasma was harvested and stored at −40°C until LC–MS/MS analysis.
The LC–MS/MS analysis was carried out using an Agilent 1290 Infinity Liquid Chromatography system (Agilent Technologies, Santa Clara, CA, United States), which is coupled to an ABSciex QTRAP® 5500 mass spectrometer (AB Sciex, Framingham, MA, United States) and equipped with a TurboIon Spray probe (AB Sciex). The LC–MS/MS system was controlled by the Analyst 1.5.2 software (AB Sciex) and chromatographic data analysis was performed using the same software. […]

[3] = Group 1, single intravenous 90 μmol/kg, HP–β–CD
[4] = Group 2, single oral 200 μmol/kg, suspension
[5] = Group 3, oral 100 μmol/kg after 1-week vehicle pre-treatment, suspension
[6] = Group 4, oral 100 μmol/kg after 1-week daily oral ISO 100 μmol/kg pre-treatment, suspension
[7] = male, Sprague-Dawley, plasma, po, 100 umol/kg, Group 3, oral 100 μmol/kg after 1-week vehicle pre-treatment, suspension
[8] = male, Sprague-Dawley, plasma, po, 100 umol/kg, Group 4, oral 100 μmol/kg after 1-week daily oral ISO 100 μmol/kg pre-treatment, suspension
[9] = male, Sprague-Dawley, plasma, po, 200 umol/kg, Group 2, single oral 200 μmol/kg, suspension
[10] = single intravenous 90 μmol/kg, resveratrol data ref Chen et al., 2016c
[11] = single oral 200 μmol/kg, resveratrol data ref Chen et al., 2016c

Freeze thaw stability (% remaining) ([1]; QC 2 ng/ml in rat plasma): 98.4 ± 7.6 % remaining
Freeze thaw stability (% remaining) ([1]; QC 400 ng/ml in rat plasma): 94.0 ± 2.4 % remaining
Freeze thaw stability (% remaining) ([1]; QC 800 ng/ml in rat plasma): 92.3 ± 1.2 % remaining
Post preparative stability (% remaining) ([1]; QC 2 ng/ml): 108.0 ± 6.1 % remaining
Post preparative stability (% remaining) ([1]; QC 400 ng/ml): 108.0 ± 1.0 % remaining
Post preparative stability (% remaining) ([1]; QC 800 ng/ml): 108.0 ± 4.1 % remaining
Long term stability (% remaining) ([1]; QC 2 ng/ml in rat plasma): 87.9 ± 2.5 % remaining
Long term stability (% remaining) ([1]; QC 400 ng/ml in rat plasma): 101.0 ± 3.0 % remaining
Long term stability (% remaining) ([1]; QC 800 ng/ml in rat plasma): 97.0 ± 6.5 % remaining
Short term stability (% remaining) ([1]; QC 2 ng/ml in rat plasma): 104.0 ± 6.0 % remaining
Short term stability (% remaining) ([1]; QC 400 ng/ml in rat plasma): 102.0 ± 5.4 % remaining
Short term stability (% remaining) ([1]; QC 800 ng/ml in rat plasma): 98.7 ± 6.4 % remaining
AUC0→last /Dose [2, 3]: 14.2 ± 5.2 kg⋅min/L
V [2, 3]: 0.893 ± 0.103 L/kg
AUC0→last /Dose [2, 4]: 4.28 ± 0.94 kg⋅min/L
Cmax /Dose [2, 4]: 27800 ± 3200 µg/mL
AUC0→last /Dose [2, 5]: 2.54 ± 0.69 kg⋅min/L
Cmax /Dose [2, 5]: 29200 ± 2800 µg/mL
AUC0→last /Dose [2, 6]: 2.97 ± 0.80 kg⋅min/L
Cmax /Dose [2, 6]: 23900 ± 6200 µg/mL
clearance ([2]; male, Sprague-Dawley, plasma, 90 umol/kg, Group 1, single intravenous 90 μmol/kg, HP–β–CD): 76.8 ± 23.7 mL/min/kg
Tmax ([2]; male, Sprague-Dawley, plasma, 100 umol/kg, Group 3, oral 100 μmol/kg after 1-week vehicle pre-treatment, suspension): 0.25 h
Tmax ([2]; male, Sprague-Dawley, plasma, 200 umol/kg, Group 2, single oral 200 μmol/kg, suspension): 0.25 to 0.75 h
MRT ([2]; male, Sprague-Dawley, plasma, iv, 90 umol/kg, Group 1, single intravenous 90 μmol/kg, HP–β–CD): 0.313 h
MRT [2, 7]: 2.27 h
bioavailability [2, 7]: 17.9 ± 4.9%
MRT [2, 8]: 3.03 h
bioavailability [2, 8]: 20.8 ± 5.6%
MRT [2, 9]: 3.07 h
bioavailability [2, 9]: 30.1 ± 6.6%
CL relative to resveratrol [2, 10]: comparable to resveratrol
V relative to resveratrol [2, 10]: comparable to resveratrol
average MRT longer than resveratrol [2, 10]: ~70%
time ISO remained measurable in the systemic circulation after administration ([2]; single oral 100 μmol/kg): at least 12 h
F relative to resveratrol [2, 11]: two to three folds greater
dose normalized AUC0→t (AUC0→t/Dose) relative to resveratrol [2, 11]: two to three folds greater
dose normalized Cmax (Cmax/Dose) relative to resveratrol [2, 11]: two to three folds greater
Compound: COc1cc(/C=C/c2cc(O)cc(O)c2)ccc1O [isorhapontigenin, trans-3,5,4′-trihydroxy-3′-methoxystilbene]
